Test results taken from patent publication US20230213520A1, “IN VITRO METHOD FOR THE PROGNOSIS OF DISEASE PROGRESSION IN A PATIENT THAT SUFFERS FROM OR IS AT RISK OF DEVELOPING A SOLID TUMOR” (Bergonié Institute, priority 2020, published 2023).
Where “and” joins values, the source holds several entries; their conditions need not be identical. Equal values may be shown once.

Legend:
[1] = REGOMUNE phase II study: safety (adverse events, CTCAE v5.0); parameters: species or system human; conditions: in vivo
Experimental: After an assessment of eligibility, patients received Regorafenib 160 mg per day on a three weeks on/one week off schedule, in cycles of 28 days. Avelumab treatment began on Day 15 cycle 1, by intravenous infusion once every 2 weeks. Treatment was continued until disease progression, unacceptable toxicity, investigator's decision to discontinue, or withdrawal of patient consent. Participants were monitored for adverse events at every follow-up assessment. Adverse events were graded according to National Cancer Institute Common Terminology Criteria for Adverse Events version 5.0. Laboratory assessments were done at baseline, and every 2 weeks afterwards until treatment discontinuation. Regorafenib dose modifications to manage adverse events were allowed (see study protocol). The dose of Regorafenib could be reduced to 120 mg and then to 80 mg. […] Tumor lesions were assessed according to RECIST version 1.1 at baseline (within 4 weeks prior to Cycle 1 Day 1), and every 8 weeks until disease progression or the start of another treatment. […]
All enrolled patients who initiated the study treatment were included in the safety analysis. […] The median follow-up was calculated using the reverse Kaplan-Meier method. […] Quantitative variables were described using the median and range, and qualitative variables were described using frequency, percentage and 95% confidence interval (binomial law). […]

[2] = tested on: metastatic colorectal cancer; conditions: cited from earlier work
[3] = tested on: immunosuppressive macrophage infiltration; conditions: preclinical model of metastatic colorectal cancer; cited from earlier work
[4] = Regorafenib single agent in addition to supportive care, pivotal study

| Molecule | Patients with dose reduction or temporary treatment discontinuation because of a drug-related adverse event ([1]; human) [patients] | Patients with grade 3 or 4 treatment-related adverse events that needed some dose reduction ([2]; CORRECT (as well as CONCUR) study, single agent) | Median overall survival [2, 4] [months] | Median progression-free survival [2, 4] | Objective response rate ([2]; pivotal randomized study) [%] | Effect on immunosuppressive macrophage infiltration [3] | Patients with dose reduction or temporary treatment discontinuation because of a drug-related adverse event [1] [patients] |
| --- | --- | --- | --- | --- | --- | --- | --- |
| CNC(=O)c1cc(Oc2ccc(NC(=O)Nc3ccc(Cl)c(C(F)(F)F)c3)c(F)c2)ccn1 [Regorafenib] | 41 | up to 54% | 6.4 | 1.9 months and 2 months | 1 | reduce immunosuppressive macrophage infiltration |  |
| Avelumab |  |  |  |  |  |  | 17 |
